Source: PMC4656030 (Journal of pharmacokinetics and pharmacodynamics, 2015)
Blank lines part the entries; values can stand above or below the molecule they belong to.

Assays:
porcine diamine oxidase = settings: read-out: reported KM of putrescine; cited from earlier work
diamine oxidase = settings: read-out: Ki for diamine oxidase; cited from earlier work
[1] = molecular target: T1, porcine kidney diamine oxidase (Sus scrofa, UniProt Q9TRC7); experiment: Diamine oxidase spectrophotometric assay with putrescine as substrate; assay type: biochemical
T1 sequence (Q9TRC7 25-755): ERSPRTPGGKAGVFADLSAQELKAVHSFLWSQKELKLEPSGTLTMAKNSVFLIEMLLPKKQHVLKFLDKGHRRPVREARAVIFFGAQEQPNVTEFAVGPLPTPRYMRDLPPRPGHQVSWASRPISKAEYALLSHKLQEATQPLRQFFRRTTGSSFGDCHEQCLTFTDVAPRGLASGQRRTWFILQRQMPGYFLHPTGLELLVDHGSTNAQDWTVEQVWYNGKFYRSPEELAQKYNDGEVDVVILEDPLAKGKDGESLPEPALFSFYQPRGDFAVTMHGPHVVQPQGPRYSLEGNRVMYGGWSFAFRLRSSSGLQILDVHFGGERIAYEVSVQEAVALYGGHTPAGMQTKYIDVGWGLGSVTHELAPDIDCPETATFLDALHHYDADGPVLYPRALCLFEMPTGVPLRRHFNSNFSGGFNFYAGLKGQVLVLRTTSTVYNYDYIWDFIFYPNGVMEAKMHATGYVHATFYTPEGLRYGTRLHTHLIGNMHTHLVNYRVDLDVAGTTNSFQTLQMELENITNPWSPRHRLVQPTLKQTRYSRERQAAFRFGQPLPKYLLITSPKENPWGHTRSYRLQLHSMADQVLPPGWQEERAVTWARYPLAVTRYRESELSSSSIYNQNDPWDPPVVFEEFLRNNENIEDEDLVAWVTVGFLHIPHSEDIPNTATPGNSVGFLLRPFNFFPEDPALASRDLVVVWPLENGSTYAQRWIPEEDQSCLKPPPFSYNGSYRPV

[2] = after a therapeutic dose; cited from earlier work
[3] = substrate: NCCCCN; experiment: purified protein, by the assay type; settings: other: porcine DAO; pH 7.0; 37.0 °C

Molecule: NCCCCN [putrescine]
- Km (porcine diamine oxidase): 350 µM

Molecule: [H]/N=C(/N)N/C(=N/[H])NCCc1ccccc1 [phenformin]
- Ki (diamine oxidase): 4 mM

- Ki [1]: 8.6 ± 3.1 mM
- type of DAO inhibition ([1]; porcine DAO): mixed-type inhibition
Molecule: CN(C)C(=N)N=C(N)N [metformin, Metformin]
- predicted concentration in the intestinal lumen [2]: 10 to 20 mM

Molecule: N=C(N)NN [aminoguanidine]
- % inhibition of porcine DAO ([1]; inhibitor 100 μM, putrescine 100 μM as substrate): greater than 80%

B1: porcine kidney diamine oxidase (Sus scrofa) (protein)
chain: ERSPRTPGGKAGVFADLSAQELKAVHSFLWSQKELKLEPSGTLTMAKNSVFLIEMLLPKKQHVLKFLDKGHRRPVREARAVIFFGAQEQPNVTEFAVGPLPTPRYMRDLPPRPGHQVSWASRPISKAEYALLSHKLQEATQPLRQFFRRTTGSSFGDCHEQCLTFTDVAPRGLASGQRRTWFILQRQMPGYFLHPTGLELLVDHGSTNAQDWTVEQVWYNGKFYRSPEELAQKYNDGEVDVVILEDPLAKGKDGESLPEPALFSFYQPRGDFAVTMHGPHVVQPQGPRYSLEGNRVMYGGWSFAFRLRSSSGLQILDVHFGGERIAYEVSVQEAVALYGGHTPAGMQTKYIDVGWGLGSVTHELAPDIDCPETATFLDALHHYDADGPVLYPRALCLFEMPTGVPLRRHFNSNFSGGFNFYAGLKGQVLVLRTTSTVYNYDYIWDFIFYPNGVMEAKMHATGYVHATFYTPEGLRYGTRLHTHLIGNMHTHLVNYRVDLDVAGTTNSFQTLQMELENITNPWSPRHRLVQPTLKQTRYSRERQAAFRFGQPLPKYLLITSPKENPWGHTRSYRLQLHSMADQVLPPGWQEERAVTWARYPLAVTRYRESELSSSSIYNQNDPWDPPVVFEEFLRNNENIEDEDLVAWVTVGFLHIPHSEDIPNTATPGNSVGFLLRPFNFFPEDPALASRDLVVVWPLENGSTYAQRWIPEEDQSCLKPPPFSYNGSYRPV
- Km [3]: 330 ± 160 µM
